The text below walks through data of ChEMBL document CHEMBL1144063, “ent-kaurane diterpenoids from Isodon lungshengensis” (J Nat Prod, 1999).

SMILES strings stand for the structures. In brackets after ≈: the same amount, converted by molar mass.

For this experiment, the system named is K562. Put plainly: Cytotoxicity against human K-562 cells by MTT assay. It is filed as functional, cell-based. On the technique in general: Formazan colour is commonly taken as a measure of viable cells.

What is called IC50 is the concentration that inhibits the measured activity by half. The compound `C=C1C(=O)[C@]23C[C@H]1C[C@H](O)[C@H]2[C@@]1(C)[C@H]([C@@H](O)C3)C(C)(C)[C@@H](OC(C)=O)[C@@H](OC(C)=O)[C@@H]1O` [LUNGSHENGENIN A] had an IC50 of 11.7 µg/mL (≈ 26 µM). As for `C=C1C(=O)[C@]23C[C@H]1C[C@H](O)[C@H]2[C@]1(C)C[C@H](OC(C)=O)[C@H](OC(C)=O)C(C)(C)[C@H]1[C@@H](OC(C)=O)C3` [LUNGSHENGENIN C], the IC50 is 1.14 µg/mL (≈ 2.39 µM). The result for `C=C1C(=O)[C@@]23CC(=O)[C@@H]4C(C)(C)[C@@H](OC(C)=O)[C@@H](OC(C)=O)[C@H](O)[C@@]4(C)[C@@H]2[C@@H](O)C[C@@H]1C3` [LUNGSHENGENIN G] reads 3.29 µg/mL (≈ 7.34 µM).
